From ChEMBL document CHEMBL1201862, “PubChem BioAssay data set” (2004)
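These data come from cells grown in 96-well plates and exposed to compound for 48 hours at five concentrations. Here, GI50 denotes the concentration required for 50% inhibition of growth.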 Calls of active or inactive are those of the source. Rule as the data show it: active = GI50 up to about 1.1 µM and inactive = higher.

What was measured:
Test in all cases: growth of human tumour cells (NCI), 48 h
MDA-N = system: MDA-N
COLO 205 = system: COLO 205
A549 = system: A549
IGROV-1 = system: IGROV-1
OVCAR-4 = system: OVCAR-4
TK-10 = system: TK-10
K562 = system: K562
SK-MEL-28 = system: SK-MEL-28
UO-31 = system: UO-31
SN12C = system: SN12C
SK-MEL-5 = system: SK-MEL-5
ACHN = system: ACHN
786-0 = system: 786-0
KM12 = system: KM12
NCI/ADR-RES = system: NCI/ADR-RES
SNB-75 = system: SNB-75
PC-3 = system: PC-3
SR = system: SR
NCI-H226 = system: NCI-H226
EKVX = system: EKVX

Compound	GI50 (MDA-N)	GI50 (COLO 205)	GI50 (A549)	GI50 (IGROV-1)	GI50 (OVCAR-4)	GI50 (TK-10)	GI50 (K562)	GI50 (SK-MEL-28)	GI50 (UO-31)	GI50 (SN12C)	GI50 (SK-MEL-5)	GI50 (ACHN)	GI50 (786-0)	GI50 (KM12)	GI50 (NCI/ADR-RES)	GI50 (SNB-75)	GI50 (PC-3)	GI50 (SR)	GI50 (NCI-H226)	GI50 (EKVX)
Cc1nnc(-n2c(O)cc(=O)n(-c3ccccc3)c2=S)nc1/C=C/c1ccc(N(C)C)cc1	9.25 µM (inactive)	7.23 µM (inactive)	8.63 µM (inactive)	5.98 µM (inactive)	11.4 µM (inactive)	> 39.4 µM (inactive)	5.81 µM (inactive)	18.5 µM (inactive)	4.11 µM (inactive)	> 43.5 µM (inactive)	3.58 µM (inactive)	9.23 µM (inactive)	12.3 µM (inactive)	7.05 µM (inactive)	14.3 µM (inactive)	4.38 µM (inactive)	8.41 µM (inactive)	5.02 µM (inactive)	32.3 µM (inactive)	9.23 µM (inactive)
Clc1ccccc1C(Nc1cnccn1)Nc1cnccn1	23.2 µM (inactive)	> 100 µM (inactive)	> 100 µM (inactive)	> 100 µM (inactive)	> 100 µM (inactive)	> 100 µM (inactive)	4.12 µM (inactive)	> 100 µM (inactive)	> 100 µM (inactive)	> 100 µM (inactive)	> 100 µM (inactive)	> 100 µM (inactive)	> 100 µM (inactive)	> 100 µM (inactive)	> 100 µM (inactive)	96.6 µM (inactive)	> 100 µM (inactive)	0.07 µM (active)	> 100 µM (inactive)	> 100 µM (inactive)
CC(=O)CCNc1ccc(-c2cc(-c3ccc(N(C)C)cc3)nc3ccc4ccccc4c23)cc1	> 100 µM (inactive)	26.9 µM (inactive)	34.1 µM (inactive)	14.5 µM (inactive)	6.52 µM (inactive)	> 100 µM (inactive)	19.6 µM (inactive)	34.8 µM (inactive)	23.5 µM (inactive)	33.5 µM (inactive)	59.8 µM (inactive)	17.8 µM (inactive)	22.4 µM (inactive)	27.5 µM (inactive)	97.9 µM (inactive)	9.84 µM (inactive)	13.2 µM (inactive)	7.11 µM (inactive)	> 41.5 µM (inactive)	> 51.5 µM (inactive)
O=C(OCCC12CC3CC(CC(C3)C1)C2)c1ccc(NCc2cc(O)ccc2O)cc1	1.36 µM (inactive)	0.34 µM (active)	2.14 µM (inactive)	0.0547 µM (active)	0.904 µM (active)	1.52 µM (inactive)	1.66 µM (inactive)	0.849 µM (active)	0.376 µM (active)	0.719 µM (active)	1.12 µM (inactive)	1.63 µM (inactive)	1.28 µM (inactive)	0.69 µM (active)	0.687 µM (active)	1.38 µM (inactive)	0.573 µM (active)	0.404 µM (active)	2.92 µM (inactive)	1.7 µM (inactive)
CC(C)=CCC[C@@H](C)C1=C(O)C(=O)C(C)=C(Nc2ccccc2I)C1=O	21.2 µM (inactive)	15.5 µM (inactive)	11.8 µM (inactive)	3.41 µM (inactive)	5.01 µM (inactive)	22.1 µM (inactive)	12.5 µM (inactive)	18.3 µM (inactive)	10.1 µM (inactive)	16.7 µM (inactive)	9.79 µM (inactive)	16.4 µM (inactive)	13.5 µM (inactive)	7.55 µM (inactive)	2.28 µM (inactive)	6.14 µM (inactive)	5.61 µM (inactive)	1.3 µM (inactive)	5.42 µM (inactive)	18.2 µM (inactive)
COC12CCCN1c1ccn(Cc3ccccc3)c(=O)c1C2=O (centres undefined)	> 100 µM (inactive)	> 100 µM (inactive)	> 100 µM (inactive)	> 100 µM (inactive)	> 100 µM (inactive)	> 100 µM (inactive)	> 100 µM (inactive)	> 100 µM (inactive)	> 100 µM (inactive)	> 100 µM (inactive)	> 100 µM (inactive)	> 100 µM (inactive)	> 100 µM (inactive)	> 100 µM (inactive)	> 100 µM (inactive)	> 100 µM (inactive)	> 100 µM (inactive)	> 100 µM (inactive)	> 100 µM (inactive)	> 100 µM (inactive)
O=C(Cc1cc(=O)oc2cc(O)ccc12)N/N=C/c1ccc(N(CCCl)CCCl)cc1	23.4 µM (inactive)	29.2 µM (inactive)	16.1 µM (inactive)	18.8 µM (inactive)	23.8 µM (inactive)		23.5 µM (inactive)	15.1 µM (inactive)	22.2 µM (inactive)	17.7 µM (inactive)	14.6 µM (inactive)	15.8 µM (inactive)	18.8 µM (inactive)	32.4 µM (inactive)	84.1 µM (inactive)	21.7 µM (inactive)	17.9 µM (inactive)	14.2 µM (inactive)	17.7 µM (inactive)	17.5 µM (inactive)
